Here are results for five molecules from patent publication US5665704A, “Receptor specific atrial natriuretic peptides” (Genentech, Inc., priority 1995, dated 1997).

Where two headings read alike, the source gives them in different places. Bridge positions count the residues as written; N and C are the ends. Square brackets hold non-standard residues; d marks the D form. Peptide text beside a SMILES is read from it. Mpa = O=C(O)CCS

For orientation: IC50 means the concentration that gives 50% inhibition. As a reminder, the half-life is the time needed for the level to fall by half in the phase considered.

Series [1] concerns the target T1, Human endopeptidase 24.11 (hNEP) (Homo sapiens, UniProt P08473). Briefly: Degradation of ANF variants by human NEP, half-life by HPLC (Example 22).
Procedure: (§1) The half-life of various ANF variants was measured according to the following procedure.
(§2) ANF Solution: An accurately weighed amount of ANF or variant thereof was diluted with HEPES buffer (5 ml of 1M HEPES Buffer and 0.1 ml of Tween 20 diluted to a 100 ml volume with DI water) to make a 0.5 mg/ml solution.
(§3) hNEP/HEPES Solution: 75 μl of a 1 mg/ml solution of hNEP (see U.S. Pat. No. 4,960,700) is dissolved in 992.5 μl of HEPES buffer (as described above) and vortex mixed. The resulting mixture is stored in a silylated Eppendorf tube and periodically checked for activity against an ANF peptide standard.
(§4) Assay conditions: 150 μl of an ANF solution in the HEPES buffer is diluted with 820 μl HEPES buffer and vortex mixed (1 sec). Careful note of the time is taken as 30 μl of the hNEP/HEPES solution is added and the solution is vortex mixed for 1 sec. and analyzed by periodic removal of constant volume aliquots by the HPLC autosampler. A 2.5 cm×50 cm, C-18 reversed-phase column (15 micron, 300Å]) was used and elution was achieved by using a shallow gradient of increasing acetonitrile. The elution conditions consisted of a 10% to 50% acetonitrile (containing 0.1% TFA) gradient at 0.5% min.^-1. The aqueous phase was 0.1% TFA in water. The peak area of the ANP peptide is recorded at these periodic intervals and a half-life is determined from these values.
Series [2] concerns the target T2, hNPR-A (Homo sapiens, UniProt P16066).
T2 sequence (P16066 33-1061): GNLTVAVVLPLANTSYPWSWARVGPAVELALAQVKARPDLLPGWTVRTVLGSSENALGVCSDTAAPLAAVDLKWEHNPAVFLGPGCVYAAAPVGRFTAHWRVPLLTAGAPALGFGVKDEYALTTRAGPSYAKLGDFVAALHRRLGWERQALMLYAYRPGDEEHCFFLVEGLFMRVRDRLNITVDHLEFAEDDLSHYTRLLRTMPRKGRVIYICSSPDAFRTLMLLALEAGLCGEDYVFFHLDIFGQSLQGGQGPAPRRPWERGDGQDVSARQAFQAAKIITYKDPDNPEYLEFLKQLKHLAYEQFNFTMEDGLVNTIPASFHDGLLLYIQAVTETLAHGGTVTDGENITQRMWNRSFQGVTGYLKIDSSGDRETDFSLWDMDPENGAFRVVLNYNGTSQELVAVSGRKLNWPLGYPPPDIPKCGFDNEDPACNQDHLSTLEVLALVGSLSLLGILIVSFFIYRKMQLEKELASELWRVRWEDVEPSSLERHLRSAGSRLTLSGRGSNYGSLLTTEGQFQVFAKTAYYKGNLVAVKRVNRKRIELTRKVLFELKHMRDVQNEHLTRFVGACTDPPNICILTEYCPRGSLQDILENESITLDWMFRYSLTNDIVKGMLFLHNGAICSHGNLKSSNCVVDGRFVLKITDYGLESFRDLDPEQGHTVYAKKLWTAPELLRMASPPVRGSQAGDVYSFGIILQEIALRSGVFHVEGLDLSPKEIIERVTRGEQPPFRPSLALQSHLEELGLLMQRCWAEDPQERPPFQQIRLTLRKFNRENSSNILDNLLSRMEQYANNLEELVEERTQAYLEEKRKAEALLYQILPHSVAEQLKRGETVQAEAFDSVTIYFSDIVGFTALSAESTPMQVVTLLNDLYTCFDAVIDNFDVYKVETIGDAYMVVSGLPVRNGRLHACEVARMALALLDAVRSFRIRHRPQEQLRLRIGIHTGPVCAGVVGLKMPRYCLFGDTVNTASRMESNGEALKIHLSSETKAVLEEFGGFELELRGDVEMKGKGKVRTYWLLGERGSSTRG
Briefly: Binding affinity for hNPR-A (competitive displacement of I^125 labeled wild-type ANF).

The target in series [3] is T3, hNPR-C (Homo sapiens, UniProt P17342).
T3 sequence (P17342 27-541): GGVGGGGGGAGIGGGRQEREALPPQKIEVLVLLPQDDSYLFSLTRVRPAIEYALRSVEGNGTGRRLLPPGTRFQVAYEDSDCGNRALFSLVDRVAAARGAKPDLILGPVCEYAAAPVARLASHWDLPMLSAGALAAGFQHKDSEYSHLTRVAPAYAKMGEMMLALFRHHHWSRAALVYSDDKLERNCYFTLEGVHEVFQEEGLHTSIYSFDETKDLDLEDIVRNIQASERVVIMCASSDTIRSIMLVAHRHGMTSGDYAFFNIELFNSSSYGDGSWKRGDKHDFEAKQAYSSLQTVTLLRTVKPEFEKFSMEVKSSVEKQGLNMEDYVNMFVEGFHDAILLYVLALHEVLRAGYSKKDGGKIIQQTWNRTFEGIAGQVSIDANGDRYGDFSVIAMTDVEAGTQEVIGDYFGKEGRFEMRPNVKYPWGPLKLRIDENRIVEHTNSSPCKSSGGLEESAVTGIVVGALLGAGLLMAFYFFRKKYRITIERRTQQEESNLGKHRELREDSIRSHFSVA
Briefly: Binding affinity for clearance receptor hNPR-C. The text has this: For assay systems to measure binding of hANF and the compounds of this invention to hNPR-C see: Schank, D. B., et al., Biochem. Biophys. Res. Comm. 127:433-442 (1985); Scarborough, R. M., J. Biol. Chem. 261:12960-12964 and WO 90/01940.

The target of series [4] is T1, Human endopeptidase 24.11 (hNEP). Briefly: in vitro. As to conditions: isolated enzyme.
Procedure: as §1, §2, §3, §4

T1 sequence (P08473 whole entry): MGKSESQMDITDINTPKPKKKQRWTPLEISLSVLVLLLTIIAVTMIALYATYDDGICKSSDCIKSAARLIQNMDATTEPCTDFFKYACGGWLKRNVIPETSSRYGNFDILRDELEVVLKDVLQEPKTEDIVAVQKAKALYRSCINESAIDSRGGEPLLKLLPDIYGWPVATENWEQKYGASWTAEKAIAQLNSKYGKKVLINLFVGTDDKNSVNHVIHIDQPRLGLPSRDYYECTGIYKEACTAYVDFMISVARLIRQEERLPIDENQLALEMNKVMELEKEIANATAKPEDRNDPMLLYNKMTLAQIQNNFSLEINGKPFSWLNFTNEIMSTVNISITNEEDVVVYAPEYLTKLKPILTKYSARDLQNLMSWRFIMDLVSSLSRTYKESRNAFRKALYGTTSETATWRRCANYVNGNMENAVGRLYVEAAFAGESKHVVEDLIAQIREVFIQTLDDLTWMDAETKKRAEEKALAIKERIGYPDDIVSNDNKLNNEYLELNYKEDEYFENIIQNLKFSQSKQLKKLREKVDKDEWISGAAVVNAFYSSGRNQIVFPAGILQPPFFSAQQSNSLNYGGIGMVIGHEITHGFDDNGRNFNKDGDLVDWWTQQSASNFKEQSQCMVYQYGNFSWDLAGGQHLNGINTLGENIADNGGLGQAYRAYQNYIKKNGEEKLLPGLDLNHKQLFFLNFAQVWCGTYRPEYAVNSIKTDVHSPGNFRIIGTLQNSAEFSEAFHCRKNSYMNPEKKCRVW

`CC[C@H](C)[C@@H]1NC(=O)[C@H](CCCNC(=N)N)NC(=O)[C@H](CC(=O)O)NC(=O)[C@H]([C@@H](C)CC)NC(=O)[C@H](CCCNC(=N)N)NC(=O)CNC(=O)CNC(=O)[C@H](Cc2ccccc2)NC(=O)[C@@H](NC(=O)[C@H](CO)NC(=O)[C@H](CO)NC(=O)[C@H](CCCNC(=N)N)NC(=O)[C@H](CCCNC(=N)N)NC(=O)[C@H](CC(C)C)NC(=O)[C@H](CO)NC(=O)[C@H](CCCNC(=N)N)NC(=O)[C@@H]2CCCN2C(=O)[C@H](C)NC(=O)[C@@H](N)[C@@H](C)O)CSSC[C@@H](C(=O)N[C@@H](CC(N)=O)C(=O)N[C@@H](CO)C(=O)N[C@@H](Cc2ccccc2)C(=O)N[C@@H](CCCNC(=N)N)C(=O)N[C@@H](Cc2ccc(O)cc2)C(=O)O)NC(=O)CNC(=O)[C@H](CC(C)C)NC(=O)CNC(=O)[C@H](CO)NC(=O)[C@H](CCC(N)=O)NC(=O)[C@H](C)NC(=O)[C@H](CCCNC(=N)N)NC1=O` [ANF23] (H-TAPRSLRRSSCFGGRIDRIRAQSGLGCNSFRY-OH; disulfide 11-27): the “Half-Life” value in series [1] (FIG. 6: ANF variants 0.5 mg/ml, endopeptidase 11.24 (NEP) 0.225 mg/ml) is 12.3 h. Also, the IC50 in series [2] turned out to be 44 pM; in series [3] it was 4190 pM.
Regarding `CC[C@H](C)[C@@H]1NC(=O)[C@H](CCCNC(=N)N)NC(=O)CNC(=O)CNC(=O)[C@H](Cc2ccccc2)NC(=O)[C@@H](C(C)C)NC(=O)[C@@H](NC(=O)[C@H](CO)NC(=O)[C@@H](N)CO)CSSC[C@@H](C(=O)N[C@@H](Cc2ccccc2)C(=O)N[C@@H](CCCNC(=N)N)C(=O)O)NC(=O)[C@H]([C@@H](C)CC)NC(=O)[C@H](CCCNC(=N)N)NC(=O)[C@H](CC(=O)O)NC1=O` [ANF40] (H-SSC[dV]FGGRIDRICFR-OH; disulfide 3-13 (inferred); N-terminus and C-terminus assumed), the half-life at 0.5 mg/ml in series [1] (human) came to 9.95 h.
Regarding `CC[C@H](C)[C@@H]1NC(=O)[C@H](CCCNC(=N)N)NC(=O)[C@H](CC(=O)O)NC(=O)[C@H]([C@@H](C)CC)NC(=O)[C@H](CC(=O)O)NC(=O)CNC(=O)[C@@H](C)NC(=O)[C@H](Cc2ccccc2)NC(=O)CCSSC[C@@H](C(=O)N[C@@H](CC(N)=O)C(=O)N[C@@H](CO)C(=O)N[C@@H](Cc2ccccc2)C(=O)N[C@@H](CCCNC(=N)N)C(=O)N[C@@H](Cc2ccc(O)cc2)C(=O)O)NC(=O)CNC(=O)[C@H](CC(C)C)NC(=O)CNC(=O)[C@H](CO)NC(=O)[C@H](CCC(N)=O)NC(=O)[C@H](C)NC(=O)[C@H](CCCNC(=N)N)NC1=O` [ANF92] ([Mpa]F[dA]GDIDRIRAQSGLGCNSFRY-OH; disulfide 1-17), the half-life at 32 nM/ml in series [4] is 1.77 h.
Regarding `CC[C@H](C)[C@@H]1NC(=O)[C@H](CCCNC(=N)N)NC(=O)[C@H](CC(=O)O)NC(=O)[C@H]([C@@H](C)CC)NC(=O)[C@H](CC(=O)O)NC(=O)CNC(=O)[C@H](CCCNC(=N)N)NC(=O)[C@H](Cc2ccccc2)NC(=O)[C@@H](NC(=O)[C@H](CO)NC(=O)[C@H](CO)NC(=O)[C@H](CCCNC(=N)N)NC(=O)[C@H](CCCNC(=N)N)NC(=O)[C@H](CC(C)C)NC(=O)[C@@H](N)CO)CSSC[C@@H](C(=O)N[C@@H](CC(N)=O)C(=O)N[C@@H](CO)C(=O)N[C@@H](Cc2ccccc2)C(=O)N[C@@H](CCCNC(=N)N)C(=O)N[C@@H](Cc2ccc(O)cc2)C(=O)O)NC(=O)CNC(=O)[C@H](CC(C)C)NC(=O)CNC(=O)[C@H](CO)NC(=O)[C@H](CCC(N)=O)NC(=O)[C@H](C)NC(=O)[C@H](CCCNC(=N)N)NC1=O` [ANF28] (H-SLRRSSCFRGDIDRIRAQSGLGCNSFRY-OH; disulfide 7-23), the half-life at 32 nM/ml in series [1] (human) was 9.52 h.
In the case of `CC[C@H](C)[C@@H]1NC(=O)[C@H](CCCNC(=N)N)NC(=O)[C@H](CC(=O)O)NC(=O)[C@H]([C@@H](C)CC)NC(=O)[C@H](CO)NC(=O)CNC(=O)[C@@H]([C@H](C)O)NC(=O)[C@H](Cc2ccccc2)NC(=O)CCSSC[C@@H](C(=O)N[C@@H](CC(N)=O)C(=O)N[C@@H](CO)C(=O)N[C@@H](Cc2ccccc2)C(=O)N[C@@H](CCCNC(=N)N)C(=O)N[C@@H](Cc2ccc(O)cc2)C(=O)O)NC(=O)CNC(=O)[C@H](CC(C)C)NC(=O)CNC(=O)[C@H](CO)NC(=O)[C@H](CCC(N)=O)NC(=O)[C@H](C)NC(=O)[C@H](CCCNC(=N)N)NC1=O` [ANF80] ([Mpa]F[dT]GSIDRIRAQSGLGCNSFRY-OH; disulfide 1-17), the IC50 in series [2] (Table I, read-out: Binding Affinity IC50 (pM) hNPR-A) was determined as 423 pM; in series [3] (Table I, read-out: Binding Affinity IC50 (pM) hNPR-C), 739000 pM.
